The assay in a line: DPPH radical scavenging activity. Type of assay: functional.

In turn, `O=Cc1cc(Br)c(O)c(Br)c1` registered a 50% inhibitory concentration (IC50) of 35.8 µM.

Take `Oc1cc2c(c(Br)c1O)COCc1cc(O)c(O)c(Br)c1-2`: the 50% inhibitory concentration (IC50) stood at 8.1 µM.

`Oc1cc2c(cc1O)-c1c(cc(Br)c(O)c1O)CC2`: the concentration for half-maximal inhibition (IC50) was determined as 6.8 µM. The value for `O=Cc1cc(O)c(O)c(Br)c1` was 20.3 µM; that for `Oc1cc2c(c(Br)c1O)-c1c(cc(Br)c(O)c1O)CC2` was 6.1 µM; that for `Cc1cc(C(C)(C)C)c(O)c(C(C)(C)C)c1` [BUTYLATED HYDROXYTOLUENE] was 83.8 µM. The value for `CO[C@@H]1Oc2c(O)c(Br)cc3c2-c2c1cc(Br)c(O)c2O[C@H]3OC` [URCEOLATOL] was 15.1 µM.

(Values after ChEMBL document CHEMBL1142425, “Bromophenols from the marine red alga Polysiphonia urceolata with DPPH radical scavenging activity” (J Nat Prod, 2008).)
